Test results from patent US11390609B2, “Rho-associated protein kinase inhibitor, pharmaceutical composition comprising same, and preparation method and use thereof” (BEIJING TIDE PHARMACEUTICAL CO., LTD., priority 2017, dated 2022).

Columns and labels:
ROCK2 = ROCK2 (Homo sapiens, UniProt O75116); assay: ROCK2 kinase IC50 assay (CISBIO HTRF KinEASE-STK S2 kit); type: biochemical; details: incubated at room temperature for 2 hours
Description: The kinase IC50 was determined by a commercialized CISBIO kinase detection kit, HTRF KinEASE-STK S2 kit (62ST2PEC). ROCK2 (01-119) employed in the reaction was purchased from Carna Biosciences.
Before the assay, the following working solutions as needed were formulated with corresponding reagents according to the instruction of the kinase detection kit: 1×kinase buffer, 5×STK-52 substrate working solution (1.5 μM) and 5×ATP working solution (1.5 μM), 5×ROCK2 kinase working solution, 4×Streptavidin-XL665 working solution, and 4×STK-Ab-Cryptate 2 detection solution. Then the assay was performed according to the following procedure.
A solution of a compound at a concentration of 10000 nM was prepared with the 1×kinase buffer containing 2.5% DMSO. Gradient dilution of the solution of the compound was performed with the kinase buffer containing DMSO, so as to obtain solutions of a test compound at 9 different concentrations. In addition to wells of test compounds, a positive well (containing all the reagents except the compound) and a negative well (containing all the reagents except the test compound and kinase) were set. Except for the control wells (positive and negative wells), a solution of a test compound (4 μL) was added to each of the reaction wells, and a solution of 2.5% DMSO was added to the control wells. Then the substrate ([…], 2 μL. 5×STK-S2 substrate working solution) was added to each of the reaction wells. The 5×ROCK2 kinase working solution (2 μL, containing 1.4 ng ROCK2 kinase) was added to each of the reaction wells except for the negative well, the volume of which was made up with the 1×kinase buffer (2 μL). The 5×ATP working solution (2 μL) was added to each of the reaction wells, and the mixtures were incubated at room temperature for 2 hours. After the kinase reaction was complete, the 4×Streptavidin-XL665 working solution was added to each of the reaction wells, the solutions were mixed, followed by immediate addition of the 4×STK-Ab-Cryptate 2 detection solution (5 μL), and the mixtures were incubated at room temperature for 1 hour. The fluorescence signal was read on ENVISION (Perkinelmer) (excitation wavelength: 320 nm, and emission wavelength: 665 nm and 615 nm). The inhibitory rate in each well was calculated based on the fluorescence intensity value: ER (Emission Ratio)=(fluorescence intensity at 665 nm/fluorescence intensity at 615 nm); inhibitory rate=(ERpositive−ERtest compound)/(ERpositive−ERnegative)*100%. Curves were plotted and fitted to obtain the median inhibitory concentration (IC50) of each teat compound with the PRISM 5.0 software.

ROCK1 = ROCK1 (Homo sapiens (Human), UniProt Q13464); assay: ROCK1 kinase IC50 assay (biological test method similar to the ROCK2 assay); type: biochemical
Method in brief: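 HTRF KinEASE-STK S2 assay with the STK-S2 biotinylated substrate and ATP, at 5× working solutions of 1.5 µM each. Kinase reaction with 9-point compound dilutions ran 2 h at room temperature, followed by 1 h streptavidin-XL665/Cryptate detection. The 665/615 nm ratio was normalised to no-compound and no-kinase wells, and IC50 was obtained by curve fitting.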

ROCK1, sequence (Q13464 whole entry, species assumed): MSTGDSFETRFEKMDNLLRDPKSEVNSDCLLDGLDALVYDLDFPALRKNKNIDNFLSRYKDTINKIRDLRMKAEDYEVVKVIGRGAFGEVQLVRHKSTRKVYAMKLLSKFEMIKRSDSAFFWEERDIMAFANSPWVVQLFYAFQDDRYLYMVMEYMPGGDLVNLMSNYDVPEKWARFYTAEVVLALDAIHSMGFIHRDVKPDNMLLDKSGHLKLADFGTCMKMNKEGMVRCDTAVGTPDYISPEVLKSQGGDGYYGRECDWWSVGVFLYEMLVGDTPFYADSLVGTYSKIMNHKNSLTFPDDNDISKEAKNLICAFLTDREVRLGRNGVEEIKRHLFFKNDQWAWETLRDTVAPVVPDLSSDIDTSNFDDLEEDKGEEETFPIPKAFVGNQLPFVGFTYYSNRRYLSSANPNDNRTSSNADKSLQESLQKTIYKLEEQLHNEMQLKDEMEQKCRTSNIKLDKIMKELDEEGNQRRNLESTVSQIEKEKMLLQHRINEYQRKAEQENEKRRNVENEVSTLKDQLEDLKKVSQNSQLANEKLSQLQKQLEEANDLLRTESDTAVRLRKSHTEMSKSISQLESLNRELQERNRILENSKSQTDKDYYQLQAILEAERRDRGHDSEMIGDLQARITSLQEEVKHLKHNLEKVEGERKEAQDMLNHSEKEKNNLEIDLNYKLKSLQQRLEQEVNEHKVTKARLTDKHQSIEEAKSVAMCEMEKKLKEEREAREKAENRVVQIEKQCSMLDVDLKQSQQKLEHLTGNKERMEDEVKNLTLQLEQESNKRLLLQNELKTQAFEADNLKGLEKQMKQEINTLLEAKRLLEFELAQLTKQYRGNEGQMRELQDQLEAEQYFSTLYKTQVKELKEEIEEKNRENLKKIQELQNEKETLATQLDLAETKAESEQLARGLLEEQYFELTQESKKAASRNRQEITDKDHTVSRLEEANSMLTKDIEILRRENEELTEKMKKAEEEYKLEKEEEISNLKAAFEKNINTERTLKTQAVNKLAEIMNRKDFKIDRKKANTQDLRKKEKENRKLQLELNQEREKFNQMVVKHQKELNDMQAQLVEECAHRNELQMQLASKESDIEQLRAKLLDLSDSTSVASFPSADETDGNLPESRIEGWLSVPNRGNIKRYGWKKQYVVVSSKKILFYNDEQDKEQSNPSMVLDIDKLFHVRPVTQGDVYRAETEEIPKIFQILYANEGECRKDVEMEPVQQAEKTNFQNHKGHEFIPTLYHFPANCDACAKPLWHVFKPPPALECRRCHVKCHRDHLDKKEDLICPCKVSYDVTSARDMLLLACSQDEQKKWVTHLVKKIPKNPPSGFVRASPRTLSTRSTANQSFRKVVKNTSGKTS

Row | Molecule | IC50 (ROCK2) | IC50 (ROCK1)
1 | 5-(4-((4-(1H-pyrazol-4- yl)phenyl)amino)pyrimidin- 2-yl)-N,N-diethyl-1H- indole-2-carboxamide [TDI01408] | 400 nM | 5630 nM
2 | CC(C)(C)OC(=O)n1ncc2cc(NC(=O)c3cc4ccc(-c5nccc(Nc6ccc7[nH]ncc7c6)n5)cc4[nH]3)ccc21 [TDI01248, tert-butyl 5-(6-(4-((1H-indazol-5-yl)amino)-pyrimidin-2-yl)-1H-indole-2-carboxamido)-1H-indazole-1-carboxylate] | 500 nM | –
3 | CN1CCN(C2CCN(C(=O)c3cc4ccc(-c5nccc(Nc6ccc7[nH]ncc7c6)n5)cc4[nH]3)CC2)CC1 [TDI01319, (6-(4-((1H-indazol-5-yl)amino)-pyrimidin-2-yl)-1H-indol-2-yl)(4-(4-methyl-piperazin-1-yl)piperidin-1-yl)methanone] | 258 nM | > 10000 nM
4 | CN(C)C(=O)c1cc2ccc(-c3nccc(Nc4ccc5[nH]ncc5c4)n3)cc2[nH]1 [TDI01353, 6-(4-((1H-indazol-5-yl)amino)-pyrimidin-2-yl)-N,N-dimethyl-1H-indole-2-carboxamide] | 307 nM | –
5 | COC(=O)C(Cc1c[nH]cn1)NC(=O)c1cc2ccc(-c3nccc(Nc4ccc5[nH]ncc5c4)n3)cc2[nH]1 (stereo not shown) [TDI01385, methyl (6-(4-((1H-indazol-5-yl)amino)-pyrimidin-2-yl)-1H-indole-2-carbonyl)-histidinate] | 107 nM | –
6 | CN(C)C(=O)c1cc2ccc(-c3nc(Nc4ccc5[nH]ncc5c4)c4sccc4n3)cc2[nH]1 [TDI01406, 6-(4-((1H-indazol-5-yl)amino)-thieno[3,2-d]pyrimidin-2-yl)-N,N-dimethyl-1H-indole-2-carboxamide] | 285 nM | –
7 | CN(CCC#N)C(=O)c1cc2ccc(-c3nccc(Nc4ccc(-c5cn[nH]c5)cc4)n3)cc2[nH]1 [TDI01442, 6-(4-((4-(1H-pyrazol-4-yl)phenyl)amino)pyrimidin-2-yl)-N-(2-cyanoethyl)-N-methyl-1H-indole-2-carboxamide] | – | > 10000 nM
8 | O=C(N1Cc2ccc(-c3nccc(Nc4ccc(-c5cn[nH]c5)cc4)n3)cc2C1)N1CC(F)(F)C1 [TDI01467] | – | > 10000 nM
9 | Cn1c(C(=O)N2CC(F)(F)C2)cc2ccc(-c3nccc(Nc4ccc(-c5cn[nH]c5)cc4)n3)cc21 [TDI01470, (6-(4-((4-(1H-pyrazol-4-yl)phenyl)amino)pyrimidin-2-yl)-1-methyl-1H-indol-2-yl)(3,3-difluoroazetidin-1-yl)methanone] | – | > 10000 nM
10 | O=C(C1CC(F)(F)C1)N1CCc2ccc(-c3nccc(Nc4ccc5[nH]ncc5c4)n3)cc2C1 [TDI01682, (7-(4-((1H-indazol-5-yl)amino)pyrimidin-2-yl)-3,4-dihydroisoquinolin-2(1H)-yl)(3,3-difluorocyclobutyl)methanone] | 360 nM | –
11 | Cn1c(-n2ccnc2)cc2ccc(-c3nccc(Nc4ccc(-c5cn[nH]c5)c(F)c4)n3)cc21 [TDI01684, 2-(2-(1H-imidazol-1-yl)-1-methyl-1H-indol-6-yl)-N-(3-fluoro-4-(1H-pyrazol-4-yl)phenyl)pyrimidin-4-amine] | 171 nM | –
12 | COc1cc(Nc2ccc3[nH]ncc3c2)nc(-c2ccc3cc(C(=O)Nc4ccnnc4)[nH]c3c2)n1 [TDI01801, 6-(4-((1H-indazol-5-yl)amino)-6-methoxy-pyrimidin-2-yl)-N-(pyridazin-4-yl)-1H-indole-2-carboxamide] | 68 nM | –
13 | O=C(NC1CCN(c2ccncc2)CC1)c1cc2ccc(-c3nccc(Nc4ccc5[nH]ncc5c4)n3)cc2[nH]1 [TDI01814, 6-(4-((1H-indazol-5-yl)amino)-pyrimidin-2-yl)-N-(1-(pyridin-4-yl)piperidin-4-yl)-1H-indole-2-carboxamide] | 18 nM | –
14 | CCN(CC)C(=O)c1cc2ccc(-c3ncc(OC)c(Nc4ccc(-c5cn[nH]c5)cc4)n3)cc2[nH]1 [TDI01823, 6-(4-((4-(1H-pyrazol-4-yl)phenyl)-amino)-5-methoxy-pyrimidin-2-yl)-N,N-diethyl-1H-indole-2-carboxamide] | – | > 10000 nM
15 | N#Cc1cnccc1NC(=O)c1cc2ccc(-c3nccc(Nc4ccc(-c5cn[nH]c5)cc4)n3)cc2[nH]1 [TDI01829B, 6-(4-((4-(1H-pyrazol-4-yl)phenyl)amino)pyrimidin-2-yl)-N-(3-cyanopyridin-4-yl)-1H-indole-2-carboxamide] | – | > 10000 nM

The remaining lines, values ahead:

Row | IC50 (ROCK2) | IC50 (ROCK1) | Molecule
16 | – | > 10000 nM | O=C(Nc1ccncc1I)c1cc2ccc(-c3nccc(Nc4ccc(-c5cn[nH]c5)cc4)n3)cc2[nH]1 [TDI01829C, 6-(4-((4-(1H-pyrazol-4-yl)phenyl)-amino)-pyrimidin-2-yl)-N-(3-iodopyridin-4-yl)-1H-indole-2-carboxamide]
17 | – | 2770 nM | O=C(c1cc2ccc(-c3nccc(Nc4ccc(-c5cn[nH]c5)c(F)c4)n3)cc2[nH]1)N1CC(F)(F)C1 [TDI01842B, (3,3-difluoroazetidin-1-yl)(6-(4-((3-fluoro-4-(1H-pyrazol-4-yl)phenyl)ami-no)pyrimidn-2-yl)-1H-indol-2-yl)methanone]
18 | – | 3380 nM | O=C(NC1CCN(c2ccncc2Cl)CC1)c1cc2ccc(-c3nccc(Nc4ccc(-c5cn[nH]c5)cc4)n3)cc2[nH]1 [TDI01847B, 6-(4-((4-(1H-pyrazol-4-yl)phenyl)-amino)-pyrimidin-2-yl)-N-(1-(3-chloropyridin-4-yl)piperidin-4-yl)-1H-indole-2-carboxamide]
19 | 132 nM | – | C[C@@H](NC(=O)c1cc2ccc(-c3nccc(Nc4ccc5[nH]ncc5c4)n3)cc2[nH]1)c1ccncc1 [TDI01849, (R)-6-(4-((1H-indazol-5-yl)amino)-pyrimpidin-2-yl)-N-(1-(pyridin-4-yl)ethyl)-1H-indole-2-carboxamide]
20 | – | > 10000 nM | O=C(c1cc2ccc(-c3nccc(Nc4ccc(-c5cn[nH]c5)cc4)n3)cc2[nH]1)N1CCO[C@@H](CO)C1 [TDI01852]
21 | – | 2830 nM | O=C(c1cc2ccc(-c3nccc(Nc4ccc(-c5cn[nH]c5)cc4)n3)cc2[nH]1)N1CCOC[C@H]1CO [TDI01853, (R)-(6-(4-((4-(1H-pyrazol-4-yl)phenyl)-amino)-pyrimidin-2-yl)-1H-indol-2-yl)(3-(hydroxy-methyl)-morpholino)-methanone]
22 | – | 5420 nM | C[C@H](CN)NC(=O)c1cc2ccc(-c3nccc(Nc4ccc(-c5cn[nH]c5)cc4)n3)cc2[nH]1 [TDI01855, (R)-6-(4-((4-(1H-pyrazol-4-yl)phenyl)-amino)-pyrimidin-2-yl)-N-(1-aminopropan-2-yl)-1H-indole-2-carboxamide]
23 | – | 2040 nM | C[C@@H](CN)NC(=O)c1cc2ccc(-c3nccc(Nc4ccc(-c5cn[nH]c5)cc4)n3)cc2[nH]1 [TDI01856, (S)-6-(4-((4-(1H-pyrazol-4-yl)phenyl)-amino)-pyrimidin-2-yl)-N-(1-aminopropan-2-yl)-1H-indole-2-carboxamide]
24 | 400 nM | – | CC(C)NC(=O)c1cc2ccc(-c3nc(Nc4ccc(-c5cn[nH]c5)cc4)cc(OCCN(C)C)n3)cc2[nH]1 [TDI01865, 6-(4-((4-(1H-pyrazol-4-yl)phenyl)amino)-6-(2-(dimethylami-no)ethoxy)pyrimidin-2-yl)-N-isopropyl-1H-indole-2-carboxamide]
25 | 9 nM | – | O=C(NC1CCCC(N2CCOCC2)C1)c1cc2ccc(-c3nccc(Nc4ccc(-c5cn[nH]c5)cc4)n3)cc2[nH]1 (stereo not shown) [TDI01878, 6-(4-((4-(1H-pyrazol-4-yl)phenyl)-amino)-pyrimidin-2-yl)-N-(3-morpholino-cyclohexyl)-1H-indole-2-carboxamide]
26 | 387 nM | – | Cc1cc2ccc(-c3nccc(Nc4ccc5[nH]ncc5c4)n3)cc2[nH]1 [TDI01901, N-(2-(2-methyl-1H-indol-6-yl)pyrimidin-4-yl)-1H-indazol-5-amine]
27 | – | > 10000 nM | Fc1cc(Nc2ccnc(-c3ccc4cc(-c5nccs5)[nH]c4c3)n2)ccc1-c1cn[nH]c1 [TDI01908, N-(3-fluoro-4-(1H-pyrazol-4-yl)phenyl)-2-(2-(thiazol-2-yl)-1H-indol-6-yl)pyrimidin-4-amine]
28 | – | > 10000 nM | Cn1c(C(=O)N2CC(F)(F)C2)cc2ccc(-c3ncc(F)c(Nc4ccc(-c5cn[nH]c5)cc4)n3)cc21 [TDI01932]
29 | – | > 10000 nM | O=C(C1CC(F)(F)C1)N1Cc2ccc(-c3ncc(F)c(Nc4ccc(-c5cn[nH]c5)cc4)n3)cc2C1 [TDI01978, (5-(4-((4-(1H-pyrazol-4-yl)phenyl)amino)-5-fluoropyrimidin-2-yl)isoindolin-2-yl)(3,3-difluorocyclobutyl) methanone]
